Our source for the body weight and clinical score values is patent publication US20160214948A1, “PRODRUGS OF MONOMETHYL FUMARATE (MMF)” (RATIOPHARM GMBH, priority 2013, published 2016).

This assay relates to MOG35-55-induced experimental autoimmune encephalomyelitis (EAE). The assay can be described thus: MOG35-55-induced experimental autoimmune encephalomyelitis (EAE) in C57BL/6 mice. Format: in vivo. The conditions noted are these: male C57BL/6 mice. Here is the method: Assessment and Comparison of the Efficacy of Compounds of the Invention and DMF (Reference) in MOG35-55-Induced Experimental Autoimmune Encephalomyelitis (EAE) in C57BL/6 Mice
male C57BL/6 mice, 12 weeks old; 10 animals per treatment group;
Day 1—subcutaneous injection of MOG35-55, suspended in complete Freund's adjuvans and intraperitoneal injection of pertussis toxin.
Day 3—intraperitoneal injection of pertussis toxin.
Dimethylfumarate and test substances or vehicle only were administered via oral and intravenous route.
For oral administration, test substances were dissolved or suspended in 0.5% hydroxyethylcellulose (dissolved in 50 mM potassium dihydrogenphosphate, pH 5.0). Drug concentration in dose formulations: 11.54 mM;
Dose volume: 10 ml/kg body weight;
Start of treatment: Day 3
For intravenous administration, stock solutions were prepared in DMSO and serially diluted with phosphate buffered saline.
Observations were recorded on day 2, 4, 6, 8, 10, 12, 14 and 16.
Clinical score: grade 0-10; 0 (=no impairments), 1 (normal movement; limp tail: proximal 2/3 of the tail is limp and droopy), 2 (normal movement; whole tail is limp; 3 (wobbly walk; absent righting reflex), 4 (gait ataxia), 5 (milad paraparesis), 6 (moderate paraparesis), 7 (severe paraparesis or paraplegia), 8 (tetraparesis), 9 (moribund), 10 (death).

For the compound `COC(=O)/C=C/C(=O)OCCN1CCSCC1` [Ia], the body weight entry (FIG. 4) is “substantially maintained”. Further, the clinical score result (grade 0-10, FIG. 3, with reference to DMF) is “reduced with reference to DMF”.
